Data taken from ChEMBL document CHEMBL1201862, “PubChem BioAssay data set” (2004).
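Protocol summary: plate cells (96-well), add compound at 5 concentrations, incubate 48 h, interpolate endpoints linearly. Here, GI50 denotes the concentration required for 50% inhibition of growth.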 Calls of active or inactive are those of the source. No stated cut-off is given here; in the data, active = GI50 up to about 1.1 µM and inactive = higher.

How the values were obtained:
Experiment in all cases: inhibition of tumour cell growth, NCI panel, 48 h
[1] = system: SK-MEL-2
[2] = system: NCI-H522
[3] = system: DU-145
[4] = system: OVCAR-8
[5] = system: T47D
[6] = system: HT-29
[7] = system: M14
[8] = system: SNB-19
[9] = system: SF-539
[10] = system: MDA-MB-435
[11] = system: MCF7
[12] = system: SK-OV-3
[13] = system: U-251
[14] = system: A498
[15] = system: RXF 393
[16] = system: TK-10
[17] = system: ACHN
[18] = system: SK-MEL-28
[19] = system: HL-60

SMILES | GI50 [1] | GI50 [2] | GI50 [3] | GI50 [4] | GI50 [5] | GI50 [6] | GI50 [7] | GI50 [8] | GI50 [9] | GI50 [10] | GI50 [11] | GI50 [12] | GI50 [13] | GI50 [14] | GI50 [15] | GI50 [16] | GI50 [17] | GI50 [18] | GI50 [19]
O=C(/C=C1/Nc2ccc([N+](=O)[O-])cc2N/C1=C/C(=O)c1ccccc1)c1ccccc1 | 0.385 µM (active) | 13.3 µM (inactive) | 43.7 µM (inactive) | 16.8 µM (inactive) | 18.3 µM (inactive) | 71.1 µM (inactive) | 86.9 µM (inactive) | 21.6 µM (inactive) | 8.2 µM (inactive) | > 100 µM (inactive) | 21 µM (inactive) | 23 µM (inactive) | 13.5 µM (inactive) | 21.4 µM (inactive) | 14.3 µM (inactive) | 24.9 µM (inactive) | 39.8 µM (inactive) | – | –
CNC1=Nc2ccccc2C(=O)N2CSCC12 (centres undefined) | > 100 µM (inactive) | 23.9 µM (inactive) | > 100 µM (inactive) | > 100 µM (inactive) | > 100 µM (inactive) | > 100 µM (inactive) | > 100 µM (inactive) | > 100 µM (inactive) | – | > 100 µM (inactive) | > 100 µM (inactive) | > 100 µM (inactive) | > 100 µM (inactive) | > 100 µM (inactive) | > 100 µM (inactive) | > 100 µM (inactive) | > 100 µM (inactive) | > 100 µM (inactive) | –
N#Cc1c(Cl)c2ccccc2n2c1nc1ccccc12 | 37.3 µM (inactive) | – | 27.7 µM (inactive) | 21.9 µM (inactive) | 27.2 µM (inactive) | 20.3 µM (inactive) | 19.6 µM (inactive) | 74.6 µM (inactive) | 19.4 µM (inactive) | 56.1 µM (inactive) | 39.9 µM (inactive) | 87.9 µM (inactive) | 92.7 µM (inactive) | > 100 µM (inactive) | 22.6 µM (inactive) | 19.4 µM (inactive) | 18 µM (inactive) | 79.3 µM (inactive) | 5.33 µM (inactive)
CC1(C)C2CCC(N)(C2)C1O (centres undefined) | > 100 µM (inactive) | – | > 100 µM (inactive) | > 100 µM (inactive) | > 100 µM (inactive) | – | > 100 µM (inactive) | > 100 µM (inactive) | – | > 100 µM (inactive) | > 100 µM (inactive) | > 100 µM (inactive) | > 100 µM (inactive) | > 100 µM (inactive) | > 100 µM (inactive) | > 100 µM (inactive) | > 100 µM (inactive) | > 100 µM (inactive) | > 10 µM (inactive)
O=C(O)CCc1c2ccc(=O)c(O)c-2oc2c(O)c(O)ccc12 | > 100 µM (inactive) | 27.4 µM (inactive) | > 100 µM (inactive) | 54.6 µM (inactive) | > 100 µM (inactive) | > 100 µM (inactive) | > 100 µM (inactive) | > 100 µM (inactive) | – | 17.1 µM (inactive) | 14.8 µM (inactive) | > 100 µM (inactive) | 30.1 µM (inactive) | 46.7 µM (inactive) | > 100 µM (inactive) | > 100 µM (inactive) | 39.1 µM (inactive) | > 100 µM (inactive) | 44.3 µM (inactive)
COC(=O)C(Cc1ccccc1)NC(=O)CSc1nnc(COc2ccc(Cl)cc2)n1-c1ccccc1 (centres undefined) | 17.7 µM (inactive) | – | 34.8 µM (inactive) | – | 26.1 µM (inactive) | 23.4 µM (inactive) | 20.2 µM (inactive) | 49.9 µM (inactive) | 22.4 µM (inactive) | 19.1 µM (inactive) | 23.4 µM (inactive) | 15.8 µM (inactive) | 18.5 µM (inactive) | 17 µM (inactive) | 19.1 µM (inactive) | 19.4 µM (inactive) | 16.4 µM (inactive) | 27.2 µM (inactive) | 20.6 µM (inactive)
O=C(Nc1ccccc1)N(CCN(Cc1ccccc1)C(=O)Nc1ccccc1)CCN(Nc1ccccc1)C(=O)Nc1ccccc1 | > 100 µM (inactive) | > 100 µM (inactive) | > 100 µM (inactive) | > 100 µM (inactive) | > 100 µM (inactive) | > 100 µM (inactive) | 92.9 µM (inactive) | > 100 µM (inactive) | – | > 100 µM (inactive) | > 100 µM (inactive) | > 100 µM (inactive) | > 100 µM (inactive) | > 100 µM (inactive) | > 100 µM (inactive) | > 100 µM (inactive) | > 100 µM (inactive) | > 100 µM (inactive) | > 100 µM (inactive)
CN1C(=O)N/C(=C\c2ccc(S(=O)(=O)N/N=C\C(O)C(O)C(O)CO)cc2)C1=O (centres undefined) | > 100 µM (inactive) | – | > 100 µM (inactive) | > 100 µM (inactive) | > 100 µM (inactive) | > 100 µM (inactive) | > 100 µM (inactive) | > 100 µM (inactive) | – | > 100 µM (inactive) | > 100 µM (inactive) | > 100 µM (inactive) | > 100 µM (inactive) | > 100 µM (inactive) | > 100 µM (inactive) | > 100 µM (inactive) | > 100 µM (inactive) | > 100 µM (inactive) | > 100 µM (inactive)
N#C/C(=C/NC(N)=S)C(N)=O | > 100 µM (inactive) | – | > 100 µM (inactive) | > 100 µM (inactive) | > 100 µM (inactive) | > 100 µM (inactive) | > 100 µM (inactive) | > 100 µM (inactive) | > 100 µM (inactive) | > 100 µM (inactive) | > 100 µM (inactive) | > 100 µM (inactive) | > 100 µM (inactive) | > 100 µM (inactive) | > 100 µM (inactive) | > 100 µM (inactive) | > 100 µM (inactive) | > 100 µM (inactive) | > 100 µM (inactive)
O=C(O)Cc1c(O)ccc2ccccc12 | > 100 µM (inactive) | > 100 µM (inactive) | > 100 µM (inactive) | > 100 µM (inactive) | > 100 µM (inactive) | > 100 µM (inactive) | > 100 µM (inactive) | > 100 µM (inactive) | > 100 µM (inactive) | > 100 µM (inactive) | > 100 µM (inactive) | > 100 µM (inactive) | > 100 µM (inactive) | > 100 µM (inactive) | > 100 µM (inactive) | > 100 µM (inactive) | > 100 µM (inactive) | > 100 µM (inactive) | –
Cc1ccc2c(c1)C(=O)N1CCC[C@H]1C=N2 | 17.5 µM (inactive) | 5.13 µM (inactive) | 7.78 µM (inactive) | 23.9 µM (inactive) | 18.4 µM (inactive) | 15.4 µM (inactive) | 16.9 µM (inactive) | 28.2 µM (inactive) | 18.3 µM (inactive) | 16.7 µM (inactive) | 11.9 µM (inactive) | 42 µM (inactive) | 16.3 µM (inactive) | 34 µM (inactive) | 4.21 µM (inactive) | 20.5 µM (inactive) | 15 µM (inactive) | 22.7 µM (inactive) | –
O=C1Nc2ccccc2[C@]12C[C@H]2c1ccccn1 | > 100 µM (inactive) | > 100 µM (inactive) | > 100 µM (inactive) | – | > 100 µM (inactive) | – | > 100 µM (inactive) | > 100 µM (inactive) | > 100 µM (inactive) | > 100 µM (inactive) | > 100 µM (inactive) | > 100 µM (inactive) | > 100 µM (inactive) | > 100 µM (inactive) | > 100 µM (inactive) | > 100 µM (inactive) | > 100 µM (inactive) | > 100 µM (inactive) | –
COCOc1cc(OC)c(Br)cc1C/C(=N/O)C(=O)OC | 88.5 µM (inactive) | 37.9 µM (inactive) | > 100 µM (inactive) | > 100 µM (inactive) | 15.8 µM (inactive) | > 100 µM (inactive) | > 100 µM (inactive) | > 100 µM (inactive) | > 100 µM (inactive) | 29.6 µM (inactive) | 95.5 µM (inactive) | > 100 µM (inactive) | > 100 µM (inactive) | – | 28.5 µM (inactive) | 35.1 µM (inactive) | > 100 µM (inactive) | > 100 µM (inactive) | 52.7 µM (inactive)
O=c1[nH]c(=O)n(C2CC(O)C(CO)O2)cc1C1=NC1 (centres undefined) | > 100 µM (inactive) | – | > 100 µM (inactive) | > 100 µM (inactive) | 35.2 µM (inactive) | > 100 µM (inactive) | > 100 µM (inactive) | > 100 µM (inactive) | > 100 µM (inactive) | > 100 µM (inactive) | > 100 µM (inactive) | > 100 µM (inactive) | > 100 µM (inactive) | > 100 µM (inactive) | > 100 µM (inactive) | > 100 µM (inactive) | > 100 µM (inactive) | > 100 µM (inactive) | –
c1c[nH]c(-c2cccc3nsnc23)c1 | > 100 µM (inactive) | > 100 µM (inactive) | > 100 µM (inactive) | 78 µM (inactive) | 3.78 µM (inactive) | 53.3 µM (inactive) | > 100 µM (inactive) | > 100 µM (inactive) | > 100 µM (inactive) | > 100 µM (inactive) | 6.7 µM (inactive) | > 100 µM (inactive) | > 100 µM (inactive) | 61.7 µM (inactive) | 38.1 µM (inactive) | 19.3 µM (inactive) | 71.9 µM (inactive) | > 100 µM (inactive) | –
O=C(O)C1(Cc2ccccc2)Cc2cc3c(cc2C1)CCC3 | 82 µM (inactive) | > 100 µM (inactive) | > 100 µM (inactive) | > 100 µM (inactive) | 18.3 µM (inactive) | > 100 µM (inactive) | 44.1 µM (inactive) | > 100 µM (inactive) | > 100 µM (inactive) | > 100 µM (inactive) | > 100 µM (inactive) | > 100 µM (inactive) | 66.4 µM (inactive) | – | > 100 µM (inactive) | > 100 µM (inactive) | > 100 µM (inactive) | > 100 µM (inactive) | 48.9 µM (inactive)
